Here are results for 13 compounds from patent publication US20230322761A1, “DEGRADATION OF BRUTON'S TYROSINE KINASE (BTK) BY CONJUGATION OF BTK INHIBITORS WITH E3 LIGASE LIGAND AND METHODS OF USE” (BEIGENE, LTD., priority 2020, published 2023).

The target of this test is T1, BTK (Homo sapiens, UniProt Q06187).
T1 construct: endogenous in cells; host or cells: TMD-8 cells
Briefly: BTK degradation in TMD-8 cells, HTRF assay after 6 h treatment. It counts as cell-based. The note with it: IC50 (DC50) of BTK degradation. The procedure, abridged: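 Remaining BTK was quantified by HTRF in lysates of TMD-8 cells after 6 h exposure to an 8-point, 6-fold compound series (500× stocks in DMSO starting at 1 mM; 0.2% DMSO). Lysis 30 min, antibodies overnight at room temperature, ratio read at 665/620 nm; DC50 fitted with a four-parameter logistic equation.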
(In TR-FRET formats the signal depends on donor and acceptor labels being close together.)

T1 sequence (Q06187 whole entry): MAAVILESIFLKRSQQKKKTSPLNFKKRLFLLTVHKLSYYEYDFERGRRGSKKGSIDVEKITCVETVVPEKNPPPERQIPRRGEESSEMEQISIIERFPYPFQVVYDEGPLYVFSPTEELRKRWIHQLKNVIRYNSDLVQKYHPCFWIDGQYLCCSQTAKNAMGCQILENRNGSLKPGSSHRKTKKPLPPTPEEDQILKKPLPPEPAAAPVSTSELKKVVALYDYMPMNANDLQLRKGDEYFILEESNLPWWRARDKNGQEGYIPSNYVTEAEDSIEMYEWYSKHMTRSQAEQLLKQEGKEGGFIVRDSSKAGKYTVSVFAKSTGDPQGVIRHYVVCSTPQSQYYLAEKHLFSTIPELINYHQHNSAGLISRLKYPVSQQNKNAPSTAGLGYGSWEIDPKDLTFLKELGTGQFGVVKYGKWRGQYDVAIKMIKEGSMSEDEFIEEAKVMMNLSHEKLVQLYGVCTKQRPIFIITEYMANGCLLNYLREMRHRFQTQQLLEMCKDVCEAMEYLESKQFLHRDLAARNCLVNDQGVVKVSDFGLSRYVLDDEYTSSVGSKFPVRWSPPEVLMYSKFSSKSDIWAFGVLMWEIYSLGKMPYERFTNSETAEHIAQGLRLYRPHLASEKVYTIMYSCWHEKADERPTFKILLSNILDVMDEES

Compound `Cc1cc(-c2n[nH]c3ncc(-c4ccc(N5CCN(CCCOc6ccc(NC7CCC(=O)NC7=O)c(F)c6)CC5)cc4)cc23)ccc1[C@@H](C)NC(=O)c1noc(C(C)(C)C)n1` (stereo partly drawn) [Example 142, 5-(tert-butyl)-N-((1R)-1-(4-(5-(4-(4-(3-(4-((2,6-dioxopiperidin-3-yl)amino)-3-fluorophenoxy)propyl)piperazin-1-yl)phenyl)-1H-pyrazolo[3,4-b]pyridin-3-yl)-2-methylphenyl)ethyl)-1,2,4-oxadiazole-3-carboxamide] registered a DC50 of 6.15 nM.

As for `Cc1cc(-c2n[nH]c3ncc(-c4ccc(N5CCN(CCn6cc(N7CCC(=O)NC7=O)cn6)CC5)cc4)cc23)ccc1[C@@H](C)NC(=O)c1noc(C(C)(C)C)n1` [Example 143, (R)-5-(tert-butyl)-N-(1-(4-(5-(4-(4-(2-(4-(2,4-dioxotetrahydropyrimidin-1(2H)-yl)-1H-pyrazol-1-yl)ethyl)piperazin-1-yl)phenyl)-1H-pyrazolo[3,4-b]pyridin-3-yl)-2-methylphenyl)ethyl)-1,2,4-oxadiazole-3-carboxamide], it took 18.8 nM to reach half-maximal degradation (DC50).

The compound `Cc1cc(-c2n[nH]c3ncc(-c4ccc(N5CCC(CN6CCN(c7ccc(N8CCC(=O)NC8=O)cc7)CC6)CC5)cc4)cc23)ccc1[C@@H](C)NC(=O)c1noc(C(C)(C)C)n1` [Example 144, (R)-5-(tert-butyl)-N-(1-(4-(5-(4-(4-((4-(4-(2,4-dioxotetrahydropyrimidin-1(2H)-yl)phenyl)piperazin-1-yl)methyl)piperidin-1-yl)phenyl)-1H-pyrazolo[3,4-b]pyridin-3-yl)-2-methylphenyl)ethyl)-1,2,4-oxadiazole-3-carboxamide] came in with a DC50 of 1.93 nM.

The compound `Cc1cc(CCN2CCC(c3ccc(-c4cnc5[nH]nc(-c6ccc([C@@H](C)NC(=O)c7noc(C(C)(C)C)n7)c(C)c6)c5c4)nc3)CC2)ncc1C1CCC(=O)NC1=O` (stereo partly drawn) [Example 145, 5-(tert-butyl)-N-((1R)-1-(4-(5-(5-(1-(2-(5-(2,6-dioxopiperidin-3-yl)-4-methylpyridin-2-yl)ethyl)piperidin-4-yl)pyridin-2-yl)-1H-pyrazolo[3,4-b]pyridin-3-yl)-2-methylphenyl)ethyl)-1,2,4-oxadiazole-3-carboxamide] registered a DC50 of 1.22 nM. Take `Cc1cc(-c2n[nH]c3ncc(-c4ccc(N5CCN(CCc6ccc(C7CCC(=O)NC7=O)c(F)c6)CC5)cn4)cc23)ccc1[C@@H](C)NC(=O)c1noc(C(C)(C)C)n1` (stereo partly drawn) [Example 146, 5-(tert-butyl)-N-((1R)-1-(4-(5-(5-(4-(4-(2,6-dioxopiperidin-3-yl)-3-fluorophenethyl)piperazin-1-yl)pyridin-2-yl)-1H-pyrazolo[3,4-b]pyridin-3-yl)-2-methylphenyl)ethyl)-1,2,4-oxadiazole-3-carboxamide]: the DC50 was 1.74 nM. The same measure for `Cc1cc(CCN2CCN(c3ccc(-c4cnc5[nH]nc(-c6ccc([C@@H](C)NC(=O)c7noc(C(C)(C)C)n7)c(C)c6)c5c4)nc3)CC2)ncc1C1CCC(=O)NC1=O` (stereo partly drawn) [Example 147, 5-(tert-butyl)-N-((1R)-1-(4-(5-(5-(4-(2-(5-(2,6-dioxopiperidin-3-yl)-4-methylpyridin-2-yl)ethyl)piperazin-1-yl)pyridin-2-yl)-1H-pyrazolo[3,4-b]pyridin-3-yl)-2-methylphenyl)ethyl)-1,2,4-oxadiazole-3-carboxamide]: 2.11 nM. The same measure for `Cc1cc(CCN2CCN(c3ccc(-c4cnc5[nH]nc(-c6ccc([C@@H](C)NC(=O)c7noc(C(C)(C)C)n7)c(C)c6F)c5c4)cc3)CC2)ncc1C1CCC(=O)NC1=O` (stereo partly drawn) [Example 148, 5-(tert-butyl)-N-((1R)-1-(4-(5-(4-(4-(2-(5-(2,6-dioxopiperidin-3-yl)-4-methylpyridin-2-yl)ethyl)piperazin-1-yl)phenyl)-1H-pyrazolo[3,4-b]pyridin-3-yl)-3-fluoro-2-methylphenyl)ethyl)-1,2,4-oxadiazole-3-carboxamide]: 1.84 nM; for `Cc1cc(CCN2CCN(c3ccc(-c4cnc5[nH]nc(-c6ccc([C@@H](C)NC(=O)c7noc(C(C)(C)C)n7)c(CO)c6)c5c4)cc3)CC2)ncc1C1CCC(=O)NC1=O` (stereo partly drawn) [Example 149, 5-(tert-butyl)-N-((1R)-1-(4-(5-(4-(4-(2-(5-(2,6-dioxopiperidin-3-yl)-4-methylpyridin-2-yl)ethyl)piperazin-1-yl)phenyl)-1H-pyrazolo[3,4-b]pyridin-3-yl)-2-(hydroxymethyl)phenyl)ethyl)-1,2,4-oxadiazole-3-carboxamide]: 1.6 nM. The figure for `Cc1cc(-c2n[nH]c3ncc(-c4ccc(N5CCN(CCc6ccc([C@H]7CCC(=O)NC7=O)cc6)CC5)cc4)cc23)ccc1CNC(=O)c1cn(C(C)(C)C)nn1` [Example 150, (R)-1-(tert-butyl)-N-(4-(5-(4-(4-(4-(2,6-dioxopiperidin-3-yl)phenethyl)piperazin-1-yl)phenyl)-1H-pyrazolo[3,4-b]pyridin-3-yl)-2-methylbenzyl)-1H-1,2,3-triazole-4-carboxamide] is 8.88 nM. As for `Cc1cc(-c2n[nH]c3ncc(-c4ccc(N5CCN(CCc6ccc([C@@H]7CCC(=O)NC7=O)cc6)CC5)cc4)cc23)ccc1CNC(=O)c1cn(C(C)(C)C)nn1` [Example 151, (S)-1-(tert-butyl)-N-(4-(5-(4-(4-(4-(2,6-dioxopiperidin-3-yl)phenethyl)piperazin-1-yl)phenyl)-1H-pyrazolo[3,4-b]pyridin-3-yl)-2-methylbenzyl)-1H-1,2,3-triazole-4-carboxamide], it took 17.8 nM to reach half-maximal degradation (DC50). With `Cc1cc(-c2n[nH]c3ncc(-c4ccc(C5CCN(CCc6ccc([C@H]7CCC(=O)NC7=O)cc6)CC5)nc4)cc23)ccc1[C@@H](C)NC(=O)c1noc(C(C)(C)C)n1` [Example 152, 5-(tert-butyl)-N—((R)-1-(4-(5-(6-(1-(4-((R)-2,6-dioxopiperidin-3-yl)phenethyl)piperidin-4-yl)pyridin-3-yl)-1H-pyrazolo[3,4-b]pyridin-3-yl)-2-methylphenyl)ethyl)-1,2,4-oxadiazole-3-carboxamide], the DC50 amounted to 1.03 nM. The figure for `Cc1cc(-c2n[nH]c3ncc(-c4ccc(C5CCN(CCc6ccc([C@@H]7CCC(=O)NC7=O)cc6)CC5)nc4)cc23)ccc1[C@@H](C)NC(=O)c1noc(C(C)(C)C)n1` [Example 153, 5-(tert-butyl)-N—((R)-1-(4-(5-(6-(1-(4-((S)-2,6-dioxopiperidin-3-yl)phenethyl)piperidin-4-yl)pyridin-3-yl)-1H-pyrazolo[3,4-b]pyridin-3-yl)-2-methylphenyl)ethyl)-1,2,4-oxadiazole-3-carboxamide] is 11.8 nM; for `Cc1cc(CCN2CCN(c3ccc(-c4cnc5[nH]nc(-c6ccc([C@@H](C)NC(=O)c7nc(C(C)(C)C)no7)c(C)c6)c5c4)cc3)CC2)ncc1C1CCC(=O)NC1=O` (stereo partly drawn) [Example 154, 3-(tert-butyl)-N-((1R)-1-(4-(5-(4-(4-(2-(5-(2,6-dioxopiperidin-3-yl)-4-methylpyridin-2-yl)ethyl)piperazin-1-yl)phenyl)-1H-pyrazolo[3,4-b]pyridin-3-yl)-2-methylphenyl)ethyl)-1,2,4-oxadiazole-5-carboxamide] it is 3.27 nM.

Broadly, the DC50 is the midpoint of the concentration-degradation curve. A high value points to a less potent degrader.
